Results as given in patent publication US8865733B2, “Medication and treatment for disease” (Altman Enterprises, LLC, priority 2008, dated 2014).

Assays:
[1] = test system: MS patients; assay: Treatment of individual MS patients with the medication (case reports, Patients A, B, C); type: in vivo, human; conditions: Patient C; low dose naltrexone 3 mg daily before the medication
From the text: Diagnosis was confirmed by an MRI of their brain, lumbar puncture, and visual evolved response.

[2] = test system: MS patients; conditions: LDN alone; cited from earlier work

## O=C1CC[C@@]2(O)[C@H]3Cc4ccc(O)c5c4[C@@]2(CCN3CC2CC2)[C@H]1O5 [low dose naltrexone, naltrexone]
[1]
  improvement under earlier treatment: no improvement
[2]
  improvement of physical ability: no improvement of physical ability
